# Measured values taken from ChEMBL document CHEMBL1201862, “PubChem BioAssay data set” (2004).
# Calls of active or inactive are those of the source.
# Assays:
# [1] = biological target: Lytic switch protein BZLF1 (Epstein-Barr virus (strain B95-8) (HHV-4) (Human herpesvirus 4), UniProt P03206); experiment: inhibition of BZLF1 ZTA DNA binding – biochemical, fluorescence polarization, Epstein-Barr virus, 1536-well, counter-screen for EBNA-1 inhibitor project, dose response (AID 2377); design: species or system human gammaherpesvirus 4;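 also: fluorescence polarization of Cy5-labelled ZRE DNA probe bound by purified Zta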
# [2] = biological target: Epstein-Barr nuclear antigen 1 (Epstein-Barr virus (strain B95-8) (HHV-4) (Human herpesvirus 4), UniProt P03211); experiment: inhibition of EBV nuclear antigen 1 DNA binding – biochemical, fluorescence polarization, 1536-well, dose response (AID 2381); design: species or system human gammaherpesvirus 4;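 also: fluorescence polarization of a Cy5 DNA probe bound by EBNA-1 protein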
# [3] = biological target: Luciferin 4-monooxygenase (Photinus pyralis, UniProt P08659); experiment: Counter Screen for Luciferase-based Assay Positives. [Related pubchem assays: 620, 618, 411 ]
# HT-1080 = experiment: HT1080 cell viability loss – fluorescence readout (AID 620); assay type: functional, cell-based; settings: Homo sapiens
# Estrogen receptor = biological target: T1, Estrogen receptor (Homo sapiens, UniProt P03372); experiment: ERα coactivator recruitment enhancers – biochemical, TR-FRET, ERα LBD, dose response (AID 737)
# T1 sequence (P03372 whole entry): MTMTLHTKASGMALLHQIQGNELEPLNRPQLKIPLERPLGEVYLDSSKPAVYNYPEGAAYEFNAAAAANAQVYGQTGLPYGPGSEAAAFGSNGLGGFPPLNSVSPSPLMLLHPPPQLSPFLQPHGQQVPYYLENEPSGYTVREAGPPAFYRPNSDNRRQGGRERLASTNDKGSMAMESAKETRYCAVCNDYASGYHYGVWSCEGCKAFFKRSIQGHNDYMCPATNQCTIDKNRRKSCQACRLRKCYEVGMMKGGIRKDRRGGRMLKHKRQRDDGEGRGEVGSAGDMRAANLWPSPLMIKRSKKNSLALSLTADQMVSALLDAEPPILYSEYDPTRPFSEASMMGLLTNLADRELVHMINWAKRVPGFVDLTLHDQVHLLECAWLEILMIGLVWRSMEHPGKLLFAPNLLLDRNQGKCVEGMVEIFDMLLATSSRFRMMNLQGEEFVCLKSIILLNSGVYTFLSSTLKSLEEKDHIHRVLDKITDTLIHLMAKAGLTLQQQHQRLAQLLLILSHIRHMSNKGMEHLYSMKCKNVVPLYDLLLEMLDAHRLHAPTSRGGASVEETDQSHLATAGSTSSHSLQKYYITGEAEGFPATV
# [4] = HIV-1 Vif–A3G interaction blockers – biochemical, TR-FRET, GST-Vif 1-94, biotin-A3G peptide, dose response retest, primary screen (AID 1117319); assay type: functional;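 also: TR-FRET signal of purified GST-Vif binding a biotinylated A3G peptide; inhibitors lower the FRET signal by blocking Vif and A3G binding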
# NADPH oxidase 1 = NADPH oxidase 1 (Homo sapiens, UniProt Q9Y5S8); experiment: Luminescence-based cell-based dose response assay to identify inhibitors of NADPH oxidase 1 (NOX1).; assay type: functional
# Large T antigen = Large T antigen (Simian virus 40, UniProt P03070); assay type: functional, Betapolyomavirus macacae;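 also: Confirmatory-stage PubChem screen for compounds that inhibit SV40 T antigen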
# [5] = biological target: T2, Alkaline phosphatase, tissue-nonspecific isozyme (Homo sapiens, UniProt P05186); experiment: potency against alkaline phosphatase TNAP – biochemical, luminescent, dose response, SAR follow-up (AID 1056)
# T2 sequence (P05186 whole entry): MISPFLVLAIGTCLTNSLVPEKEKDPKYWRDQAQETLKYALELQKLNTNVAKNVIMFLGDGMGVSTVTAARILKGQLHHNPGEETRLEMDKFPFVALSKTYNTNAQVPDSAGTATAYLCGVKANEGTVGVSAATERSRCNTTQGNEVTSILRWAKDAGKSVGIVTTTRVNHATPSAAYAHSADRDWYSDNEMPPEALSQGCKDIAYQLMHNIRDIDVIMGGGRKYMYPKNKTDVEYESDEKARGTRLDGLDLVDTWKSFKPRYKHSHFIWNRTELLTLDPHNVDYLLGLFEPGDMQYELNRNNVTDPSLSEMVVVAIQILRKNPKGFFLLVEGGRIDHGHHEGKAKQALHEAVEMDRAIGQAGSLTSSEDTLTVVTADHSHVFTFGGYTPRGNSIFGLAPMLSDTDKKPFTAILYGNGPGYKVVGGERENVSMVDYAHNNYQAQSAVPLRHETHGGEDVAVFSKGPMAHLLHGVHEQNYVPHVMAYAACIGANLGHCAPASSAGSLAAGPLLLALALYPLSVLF
# Bcl-2-like protein 1 = Bcl-2-like protein 1 (Homo sapiens, UniProt Q07817); experiment: blockers of BCLXL peptide binding – biochemical, fluorescence polarization, 1536-well, selectivity assay for MCL1 inhibitor project, dose response (AID 2218)
# [6] = biological target: Induced myeloid leukemia cell differentiation protein Mcl-1 (Homo sapiens, UniProt Q07820); experiment: blockers of MCL1 binding to BIM peptide – biochemical, fluorescence polarization, BIM-BH3 peptide, 1536-well, dose response (AID 2217)
# [7] = biological target: Alkaline phosphatase, placental type (Homo sapiens, UniProt P05187); experiment: human placental alkaline phosphatase inhibition – biochemical, luminescence, confirmation (AID 1512); assay type: functional
# [8] = biological target: T3, Histone-lysine N-methyltransferase NSD2 (Homo sapiens, UniProt O96028); assay type: biochemical
# T3 sequence (O96028 whole entry): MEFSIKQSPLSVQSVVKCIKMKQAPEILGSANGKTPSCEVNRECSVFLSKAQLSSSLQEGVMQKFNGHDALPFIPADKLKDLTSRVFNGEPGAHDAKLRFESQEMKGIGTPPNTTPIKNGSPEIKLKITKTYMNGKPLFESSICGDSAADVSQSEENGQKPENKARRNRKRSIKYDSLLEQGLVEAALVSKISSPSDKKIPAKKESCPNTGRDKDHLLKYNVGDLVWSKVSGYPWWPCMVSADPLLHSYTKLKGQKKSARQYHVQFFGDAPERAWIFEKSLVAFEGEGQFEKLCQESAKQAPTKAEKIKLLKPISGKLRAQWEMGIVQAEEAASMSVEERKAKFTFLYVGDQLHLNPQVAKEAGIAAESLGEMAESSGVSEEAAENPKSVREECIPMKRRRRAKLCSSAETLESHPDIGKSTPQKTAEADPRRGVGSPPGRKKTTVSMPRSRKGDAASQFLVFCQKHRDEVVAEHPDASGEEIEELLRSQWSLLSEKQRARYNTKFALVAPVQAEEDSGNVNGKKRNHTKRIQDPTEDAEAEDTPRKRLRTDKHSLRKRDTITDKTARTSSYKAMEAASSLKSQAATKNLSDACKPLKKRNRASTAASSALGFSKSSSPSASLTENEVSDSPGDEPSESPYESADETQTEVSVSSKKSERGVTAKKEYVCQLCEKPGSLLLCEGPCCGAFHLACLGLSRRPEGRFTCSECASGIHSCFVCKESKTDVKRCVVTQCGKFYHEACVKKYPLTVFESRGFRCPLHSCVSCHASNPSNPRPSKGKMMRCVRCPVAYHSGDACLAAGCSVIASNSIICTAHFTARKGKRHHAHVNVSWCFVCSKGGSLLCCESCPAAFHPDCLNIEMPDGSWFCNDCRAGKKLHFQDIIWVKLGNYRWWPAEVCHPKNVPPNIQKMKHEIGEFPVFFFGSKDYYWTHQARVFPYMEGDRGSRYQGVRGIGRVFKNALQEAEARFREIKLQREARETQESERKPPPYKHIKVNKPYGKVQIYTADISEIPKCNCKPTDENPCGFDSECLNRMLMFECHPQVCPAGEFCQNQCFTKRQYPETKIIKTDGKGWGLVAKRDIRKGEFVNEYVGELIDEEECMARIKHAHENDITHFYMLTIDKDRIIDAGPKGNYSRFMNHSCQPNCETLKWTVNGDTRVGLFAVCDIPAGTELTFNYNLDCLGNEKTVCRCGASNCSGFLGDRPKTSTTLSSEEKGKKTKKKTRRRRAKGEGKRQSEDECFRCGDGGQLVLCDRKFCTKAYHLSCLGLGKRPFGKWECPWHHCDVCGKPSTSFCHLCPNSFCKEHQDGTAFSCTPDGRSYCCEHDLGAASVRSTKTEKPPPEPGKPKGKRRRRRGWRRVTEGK
# Chain of NADPH oxidase 1 (Q9Y5S8 whole entry): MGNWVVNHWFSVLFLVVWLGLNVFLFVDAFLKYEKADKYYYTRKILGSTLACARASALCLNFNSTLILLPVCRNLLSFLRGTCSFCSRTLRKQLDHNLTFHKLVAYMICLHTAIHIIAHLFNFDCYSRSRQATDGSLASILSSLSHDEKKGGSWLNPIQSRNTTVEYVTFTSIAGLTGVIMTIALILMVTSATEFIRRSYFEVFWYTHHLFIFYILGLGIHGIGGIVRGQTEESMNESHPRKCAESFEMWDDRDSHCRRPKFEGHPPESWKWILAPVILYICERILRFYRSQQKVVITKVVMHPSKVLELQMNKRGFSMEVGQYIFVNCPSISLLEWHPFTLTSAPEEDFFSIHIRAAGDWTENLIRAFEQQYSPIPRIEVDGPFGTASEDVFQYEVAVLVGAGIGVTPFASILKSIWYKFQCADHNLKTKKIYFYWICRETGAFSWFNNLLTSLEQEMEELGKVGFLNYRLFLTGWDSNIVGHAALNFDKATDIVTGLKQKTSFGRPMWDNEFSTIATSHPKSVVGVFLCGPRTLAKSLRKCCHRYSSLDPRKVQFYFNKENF
# Chain of Luciferin 4-monooxygenase (P08659 whole entry): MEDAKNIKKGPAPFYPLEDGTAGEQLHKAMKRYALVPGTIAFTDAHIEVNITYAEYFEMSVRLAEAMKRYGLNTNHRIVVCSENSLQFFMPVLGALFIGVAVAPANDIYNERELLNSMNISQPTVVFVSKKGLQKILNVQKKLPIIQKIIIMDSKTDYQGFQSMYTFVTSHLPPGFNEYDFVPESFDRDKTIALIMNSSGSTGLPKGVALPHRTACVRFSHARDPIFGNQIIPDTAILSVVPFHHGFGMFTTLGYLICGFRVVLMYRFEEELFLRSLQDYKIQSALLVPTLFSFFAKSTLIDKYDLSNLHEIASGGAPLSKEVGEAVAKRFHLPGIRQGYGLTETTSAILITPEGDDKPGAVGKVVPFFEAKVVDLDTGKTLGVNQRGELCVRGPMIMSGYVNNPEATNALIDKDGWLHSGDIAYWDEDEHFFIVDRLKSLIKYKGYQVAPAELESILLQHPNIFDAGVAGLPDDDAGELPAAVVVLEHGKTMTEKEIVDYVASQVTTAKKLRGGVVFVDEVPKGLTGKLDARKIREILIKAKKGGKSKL
# Chain of Bcl-2-like protein 1 (Q07817 whole entry): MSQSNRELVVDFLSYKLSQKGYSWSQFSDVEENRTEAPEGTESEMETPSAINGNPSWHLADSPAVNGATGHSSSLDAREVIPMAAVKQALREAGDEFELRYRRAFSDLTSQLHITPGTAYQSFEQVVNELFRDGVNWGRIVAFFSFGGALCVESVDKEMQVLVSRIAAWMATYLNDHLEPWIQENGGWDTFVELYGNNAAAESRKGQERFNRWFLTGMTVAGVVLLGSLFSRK
# Chain of Alkaline phosphatase, placental type (P05187 whole entry): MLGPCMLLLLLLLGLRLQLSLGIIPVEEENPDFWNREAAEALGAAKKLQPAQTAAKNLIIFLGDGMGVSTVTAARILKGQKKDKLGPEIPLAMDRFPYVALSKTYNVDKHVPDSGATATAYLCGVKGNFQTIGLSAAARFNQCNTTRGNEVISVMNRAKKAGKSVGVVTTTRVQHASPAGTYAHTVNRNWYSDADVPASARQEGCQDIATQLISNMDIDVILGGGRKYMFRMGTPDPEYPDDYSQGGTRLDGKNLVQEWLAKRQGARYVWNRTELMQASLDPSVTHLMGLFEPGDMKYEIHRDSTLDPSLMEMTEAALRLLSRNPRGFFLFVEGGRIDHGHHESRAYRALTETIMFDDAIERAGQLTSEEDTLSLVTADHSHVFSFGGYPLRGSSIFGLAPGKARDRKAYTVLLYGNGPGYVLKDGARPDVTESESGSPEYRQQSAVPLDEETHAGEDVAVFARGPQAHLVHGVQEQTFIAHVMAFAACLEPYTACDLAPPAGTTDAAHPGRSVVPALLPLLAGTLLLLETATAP
# Chain of Induced myeloid leukemia cell differentiation protein Mcl-1 (Q07820 whole entry): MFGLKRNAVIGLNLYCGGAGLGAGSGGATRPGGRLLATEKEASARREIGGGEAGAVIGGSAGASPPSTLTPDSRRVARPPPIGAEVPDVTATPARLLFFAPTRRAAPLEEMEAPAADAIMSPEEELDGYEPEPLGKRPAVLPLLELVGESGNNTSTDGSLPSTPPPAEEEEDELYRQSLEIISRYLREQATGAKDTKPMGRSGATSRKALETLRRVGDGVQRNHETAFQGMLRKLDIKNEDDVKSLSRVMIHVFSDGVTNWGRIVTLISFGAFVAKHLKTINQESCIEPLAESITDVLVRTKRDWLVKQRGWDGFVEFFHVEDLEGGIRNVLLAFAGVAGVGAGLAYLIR
# Chain of Lytic switch protein BZLF1 (P03206 whole entry): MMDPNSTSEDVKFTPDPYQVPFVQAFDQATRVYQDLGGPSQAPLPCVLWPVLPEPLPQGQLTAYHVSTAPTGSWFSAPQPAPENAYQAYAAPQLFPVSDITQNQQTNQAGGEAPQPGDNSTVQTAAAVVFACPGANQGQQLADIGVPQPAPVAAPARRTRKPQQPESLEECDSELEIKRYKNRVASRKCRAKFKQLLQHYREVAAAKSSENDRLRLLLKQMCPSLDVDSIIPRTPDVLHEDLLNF
# Chain of Epstein-Barr nuclear antigen 1 (P03211 whole entry): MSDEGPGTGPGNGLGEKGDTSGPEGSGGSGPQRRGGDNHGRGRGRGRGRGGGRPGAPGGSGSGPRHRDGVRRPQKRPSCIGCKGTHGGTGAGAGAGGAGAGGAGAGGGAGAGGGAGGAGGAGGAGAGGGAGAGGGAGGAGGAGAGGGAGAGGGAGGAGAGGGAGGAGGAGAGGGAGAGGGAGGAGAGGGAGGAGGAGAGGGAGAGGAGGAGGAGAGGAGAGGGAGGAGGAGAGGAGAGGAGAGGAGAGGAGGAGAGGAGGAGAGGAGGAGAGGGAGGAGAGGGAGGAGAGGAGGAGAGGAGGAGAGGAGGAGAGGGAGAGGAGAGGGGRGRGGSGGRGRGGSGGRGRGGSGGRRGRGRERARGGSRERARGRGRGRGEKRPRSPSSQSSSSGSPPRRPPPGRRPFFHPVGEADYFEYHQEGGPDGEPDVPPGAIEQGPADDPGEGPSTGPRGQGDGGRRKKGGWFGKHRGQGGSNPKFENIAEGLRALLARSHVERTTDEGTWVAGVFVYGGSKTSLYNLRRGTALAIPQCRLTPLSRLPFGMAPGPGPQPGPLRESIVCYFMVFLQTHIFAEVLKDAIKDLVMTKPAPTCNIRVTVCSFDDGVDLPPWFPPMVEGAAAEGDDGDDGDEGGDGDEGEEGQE
# Chain of Large T antigen (P03070 whole entry): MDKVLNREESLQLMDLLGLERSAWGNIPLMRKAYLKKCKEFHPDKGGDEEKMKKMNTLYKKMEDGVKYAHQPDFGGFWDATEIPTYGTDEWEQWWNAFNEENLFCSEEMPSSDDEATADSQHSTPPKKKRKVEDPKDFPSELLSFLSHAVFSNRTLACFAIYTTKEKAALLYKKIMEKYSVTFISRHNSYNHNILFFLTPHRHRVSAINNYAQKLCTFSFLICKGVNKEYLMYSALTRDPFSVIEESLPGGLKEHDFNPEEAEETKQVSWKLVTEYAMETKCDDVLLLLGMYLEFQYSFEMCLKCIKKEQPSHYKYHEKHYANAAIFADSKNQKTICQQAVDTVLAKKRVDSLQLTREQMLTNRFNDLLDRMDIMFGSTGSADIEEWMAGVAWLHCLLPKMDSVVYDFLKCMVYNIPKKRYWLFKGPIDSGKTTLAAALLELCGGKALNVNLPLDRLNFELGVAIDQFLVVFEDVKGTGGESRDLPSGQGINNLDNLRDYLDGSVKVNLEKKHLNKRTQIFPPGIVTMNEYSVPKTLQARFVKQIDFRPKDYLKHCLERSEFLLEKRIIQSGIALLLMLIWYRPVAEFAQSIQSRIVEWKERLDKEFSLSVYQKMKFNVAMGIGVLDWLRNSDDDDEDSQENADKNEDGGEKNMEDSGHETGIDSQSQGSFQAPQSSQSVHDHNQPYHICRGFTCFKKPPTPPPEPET
structure (smiles),measurement,setting,value
c1ccc(-c2ccc(C3=Nn4c(nnc4-c4cc(-c5ccccc5)[nH]n4)SC3)cc2)cc1,IC50,[1],> 111 µM (not active)
same,IC50,[2],16.1 µM (not active)
Cc1nn2cc(-c3ccccc3)nc2s1,EC50,[3],0.7 µM (active)
same,EC50,HT-1080,> 50 µM (not active)
Cc1ccc(F)cc1NC(=O)c1cccc2nccnc12,EC50,Estrogen receptor,13 µM (not active)
CN(C)c1ccc(NC(=O)Nc2cccc(Cl)c2)cc1,IC50,[4],> 51.6 µM (active)
same,IC50,NADPH oxidase 1,0.048 µM (active)
C=CCn1c(SCC(=O)c2ccc(O)c(O)c2)nnc1-c1cccnc1,IC50,Large T antigen,14.5 µM (active)
same,IC50,[5],22.2 µM (active)
same,IC50,Bcl-2-like protein 1,> 109 µM (not active)
same,IC50,[6],9.37 µM (active)
same,IC50,[7],2.92 µM (active)
same,AC50,[8],4.18 µM (active)
